Data as given in ChEMBL document CHEMBL2146473 (Bioorg Med Chem, 2012).
One block for each molecule: values may come before it. Activity calls are given as the source filed them. The rule behind the calls is not given here.

How the values were obtained:
Rattus norvegicus [1] = species: Rattus norvegicus; experiment: animal or person; assay type: functional; conditions: Wistar, Plasma, po, 9 h
Rattus norvegicus [2] = species: Rattus norvegicus; experiment: animal or person; assay type: functional; conditions: Wistar, Plasma, po, 0.5 h
Dipeptidyl peptidase 4 = Dipeptidyl peptidase 4 (Rattus norvegicus, UniProt P14740); assay type: cell-free, Plasma
Dipeptidyl peptidase 4, sequence (P14740 whole entry): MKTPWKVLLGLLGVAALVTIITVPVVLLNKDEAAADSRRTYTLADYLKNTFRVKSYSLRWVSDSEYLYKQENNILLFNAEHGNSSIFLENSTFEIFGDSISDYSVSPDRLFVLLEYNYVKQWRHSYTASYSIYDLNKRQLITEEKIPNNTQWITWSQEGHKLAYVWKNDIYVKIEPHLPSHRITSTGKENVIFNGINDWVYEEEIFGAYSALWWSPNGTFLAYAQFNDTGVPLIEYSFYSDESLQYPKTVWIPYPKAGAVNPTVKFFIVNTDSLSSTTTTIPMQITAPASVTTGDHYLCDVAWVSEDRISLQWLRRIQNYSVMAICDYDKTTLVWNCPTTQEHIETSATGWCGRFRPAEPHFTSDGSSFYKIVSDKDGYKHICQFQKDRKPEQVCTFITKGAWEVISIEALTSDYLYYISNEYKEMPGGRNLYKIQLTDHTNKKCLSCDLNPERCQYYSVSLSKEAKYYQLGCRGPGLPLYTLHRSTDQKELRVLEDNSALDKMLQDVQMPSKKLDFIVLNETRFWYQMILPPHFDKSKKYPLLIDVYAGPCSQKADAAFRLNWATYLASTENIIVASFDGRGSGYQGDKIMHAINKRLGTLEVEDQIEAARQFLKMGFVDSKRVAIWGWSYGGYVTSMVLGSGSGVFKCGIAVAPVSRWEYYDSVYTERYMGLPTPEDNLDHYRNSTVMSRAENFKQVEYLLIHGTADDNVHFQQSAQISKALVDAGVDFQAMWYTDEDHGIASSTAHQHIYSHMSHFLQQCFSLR
Description: Inhibition of DPP4 in rat plasma using GLY-Pro-MCA as substrate after 60 mins by fluorescence assay

Rattus norvegicus [3] = experiment: Antidiabetic activity in Zucker fatty rat assessed as decrease in AUC (0 to 60 mins) of plasma glucose level at 0.03 to 1 mg/kg, po administered 30 mins prior to glucose challenge by oral glucose tolerance test; assay type: functional, organism-based
Rattus norvegicus [4] = experiment: Inhibition of DPP4 in po dosed Wistar rat plasma using GLY-Pro-MCA as substrate after 48 hrs by fluorescence assay; assay type: functional, organism-based
Rattus norvegicus [5] = experiment: Antidiabetic activity in Zucker fatty rat assessed as normalization of glucose excursion at 0.03 mg/kg, po administered 30 mins prior to glucose challenge by oral glucose tolerance test relative to lean-control; assay type: functional, organism-based; parameters: dose 0.03 mg/kg
Rattus norvegicus [6] = experiment: Antidiabetic activity in Zucker fatty rat assessed as decrease in plasma glucose excursion at 0.03 to 1 mg/kg, po administered 30 mins prior to glucose challenge by oral glucose tolerance test; assay type: functional, organism-based
Rattus norvegicus [7] = experiment: Sustained inhibition of DPP4 in Wistar rat plasma using GLY-Pro-MCA as substrate at 1 mg/kg, po measured up to 24 hrs by fluorescence assay; assay type: functional, organism-based; parameters: dose 1 mg/kg
[8] = AUC (0 to infinity) in rat at 0.3 mg/kg, po; assay type: ADME, organism-based; parameters: time infinity, dose 0.3 mg/kg, route oral; conditions: plasma
[9] = Oral bioavailability in rat at 0.1 mg/kg; assay type: ADME, organism-based; conditions: in vivo
[10] = Oral bioavailability in monkey at 1 mg/kg; assay type: ADME, organism-based, Macaca mulatta; conditions: rhesus monkey, in vivo
[11] = Tmax in rat at 1 mg/kg, po; assay type: ADME, organism-based; parameters: dose 1 mg/kg, route oral; conditions: in vivo
[12] = Cmax in rat at 0.3 mg/kg, po; assay type: ADME, organism-based; parameters: dose 0.3 mg/kg, route oral; conditions: in vivo
[13] = Oral bioavailability in monkey at 0.1 mg/kg; assay type: ADME, organism-based, Macaca mulatta; conditions: rhesus monkey, in vivo
[14] = Terminal half life in monkey at 0.3 mg/kg, po; assay type: ADME, organism-based, Macaca mulatta; parameters: dose 0.3 mg/kg, route oral; conditions: rhesus monkey, in vivo, read-out: beta t1/2 (converted)
[15] = AUC (0 to infinity) in monkey at 0.3 mg/kg, po; assay type: ADME, organism-based, Macaca mulatta; parameters: time infinity, dose 0.3 mg/kg, route oral; conditions: rhesus monkey, plasma
[16] = AUC (0 to infinity) in rat at 0.1 mg/kg, po; assay type: ADME, organism-based; parameters: dose 0.1 mg/kg, route oral, time infinity; conditions: plasma
[17] = Oral bioavailability in rat at 1 mg/kg; assay type: ADME, organism-based; conditions: in vivo
[18] = Terminal half life in rat at 0.3 mg/kg, po; assay type: ADME, organism-based; parameters: dose 0.3 mg/kg, route oral; conditions: in vivo, read-out: beta t1/2 (converted)
[19] = AUC (0 to infinity) in monkey at 1 mg/kg, po; assay type: ADME, organism-based, Macaca mulatta; parameters: time infinity, dose 1 mg/kg, route oral; conditions: rhesus monkey, plasma
[20] = Tmax in monkey at 1 mg/kg, po; assay type: ADME, organism-based, Macaca mulatta; parameters: dose 1 mg/kg, route oral; conditions: rhesus monkey, in vivo
[21] = Terminal half life in rat at 0.1 mg/kg, po; assay type: ADME, organism-based; parameters: dose 0.1 mg/kg, route oral; conditions: in vivo, read-out: beta t1/2 (converted)
[22] = Tmax in monkey at 0.3 mg/kg, po; assay type: ADME, organism-based, Macaca mulatta; parameters: dose 0.3 mg/kg, route oral; conditions: rhesus monkey, in vivo
[23] = Terminal half life in rat at 1 mg/kg, po; assay type: ADME, organism-based; parameters: dose 1 mg/kg, route oral; conditions: in vivo, read-out: beta t1/2 (converted)
[24] = Cmax in rat at 0.1 mg/kg, po; assay type: ADME, organism-based; parameters: dose 0.1 mg/kg, route oral; conditions: in vivo
[25] = Terminal half life in monkey at 0.1 mg/kg, po; assay type: ADME, organism-based, Macaca mulatta; parameters: dose 0.1 mg/kg, route oral; conditions: rhesus monkey, in vivo, read-out: beta t1/2 (converted)
[26] = Tmax in rat at 0.3 mg/kg, po; assay type: ADME, organism-based; parameters: dose 0.3 mg/kg, route oral; conditions: in vivo
[27] = AUC (0 to infinity) in rat at 1 mg/kg, po; assay type: ADME, organism-based; parameters: time infinity, dose 1 mg/kg, route oral; conditions: plasma
[28] = Cmax in monkey at 0.1 mg/kg, po; assay type: ADME, organism-based, Macaca mulatta; parameters: dose 0.1 mg/kg, route oral; conditions: rhesus monkey, in vivo
[29] = Cmax in monkey at 1 mg/kg, po; assay type: ADME, organism-based, Macaca mulatta; parameters: dose 1 mg/kg, route oral; conditions: rhesus monkey, in vivo
[30] = Tmax in monkey at 0.1 mg/kg, po; assay type: ADME, organism-based, Macaca mulatta; parameters: dose 0.1 mg/kg, route oral; conditions: rhesus monkey, in vivo
[31] = Oral bioavailability in rat at 0.3 mg/kg; assay type: ADME, organism-based; conditions: in vivo
[32] = Terminal half life in monkey at 1 mg/kg, po; assay type: ADME, organism-based, Macaca mulatta; parameters: dose 1 mg/kg, route oral; conditions: rhesus monkey, in vivo, read-out: beta t1/2 (converted)
[33] = Tmax in rat at 0.1 mg/kg, po; assay type: ADME, organism-based; parameters: dose 0.1 mg/kg, route oral; conditions: in vivo
[34] = Oral bioavailability in monkey at 0.3 mg/kg; assay type: ADME, organism-based, Macaca mulatta; conditions: rhesus monkey, in vivo
[35] = Cmax in monkey at 0.3 mg/kg, po; assay type: ADME, organism-based, Macaca mulatta; parameters: dose 0.3 mg/kg, route oral; conditions: rhesus monkey, in vivo
[36] = Cmax in rat at 1 mg/kg, po; assay type: ADME, organism-based; parameters: dose 1 mg/kg, route oral; conditions: in vivo
[37] = AUC (0 to infinity) in monkey at 0.1 mg/kg, po; assay type: ADME, organism-based, Macaca mulatta; parameters: time infinity, dose 0.1 mg/kg, route oral; conditions: rhesus monkey, plasma

Structure (SMILES): O=C([C@@H]1C[C@H](N2CCN(c3ccnc4ccccc34)CC2)CN1)N1CCSC1
- inhibition in vivo at 3 µmol/kg (Rattus norvegicus [1]): 12.9%
- inhibition in vivo at 3 µmol/kg (Rattus norvegicus [2]): 29.7%

Structure (SMILES): Cc1cc(N2CCN([C@@H]3CN[C@H](C(=O)N4CCSC4)C3)CC2)n(-c2ccc(Cl)cc2)n1
- IC50 (Dipeptidyl peptidase 4): 2.9 nM

Structure (SMILES): O=C([C@@H]1C[C@H](N2CCN(c3ccccn3)CC2)CN1)N1CCSC1
- inhibition in vivo at 3 µmol/kg (Rattus norvegicus [1]): 19.7%
- inhibition in vivo at 3 µmol/kg (Rattus norvegicus [2]): 62.7%

Structure (SMILES): O=C([C@@H]1C[C@H](N2CCN(c3cc(C(F)(F)F)nn3-c3ccccc3)CC2)CN1)N1CCSC1
- inhibition in vivo at 3 µmol/kg (Rattus norvegicus [1]): 81.8%
- inhibition in vivo at 3 µmol/kg (Rattus norvegicus [2]): 87.4%

Structure (SMILES): Cc1cc(N2CCN([C@@H]3CN[C@H](C(=O)N4CCSC4)C3)CC2)n(-c2ccccc2)n1 [TENELIGLIPTIN]
- inhibition in vivo at 3 µmol/kg (Rattus norvegicus [1]): 78.3%
- inhibition in vivo at 3 µmol/kg (Rattus norvegicus [2]): 94.8%

Structure (SMILES): O=C([C@@H]1C[C@H](N2CCN(c3nnnn3C3CCCCC3)CC2)CN1)N1CCSC1
- IC50 (Dipeptidyl peptidase 4): 3.1 nM
- inhibition in vivo at 3 µmol/kg (Rattus norvegicus [1]): 10.5%
- inhibition in vivo at 3 µmol/kg (Rattus norvegicus [2]): 25.6%

Structure (SMILES): Cc1cc(N2CCN([C@@H]3CN[C@H](C(=O)N4CCSC4)C3)CC2)n(-c2ccc(C#N)cn2)n1
- IC50 (Dipeptidyl peptidase 4): 14 nM

Structure (SMILES): O=C([C@@H]1C[C@H](N2CCC(c3cc(C(F)(F)F)nn3-c3ccccc3)CC2)CN1)N1CCSC1
- IC50 (Dipeptidyl peptidase 4): 2.5 nM

Structure (SMILES): Cc1cc(N2CCN([C@@H]3CN[C@H](C(=O)N4CCSC4)C3)CC2)n(-c2ccncc2)n1
- IC50 (Dipeptidyl peptidase 4): 4.7 nM

Structure (SMILES): Cc1cc(N2CCN([C@@H]3CN[C@H](C(=O)N4CCSC4)C3)CC2)n(-c2ccccn2)n1
- inhibition in vivo at 3 µmol/kg (Rattus norvegicus [1]): 53.7%
- inhibition in vivo at 3 µmol/kg (Rattus norvegicus [2]): 83%

Structure (SMILES): Cc1cc(N2CCN([C@@H]3CN[C@H](C(=O)N4CCSC4)C3)CC2)n(-c2cccnc2)n1
- IC50 (Dipeptidyl peptidase 4): 0.77 nM
- inhibition in vivo at 3 µmol/kg (Rattus norvegicus [1]): 40.8%
- inhibition in vivo at 3 µmol/kg (Rattus norvegicus [2]): 66.9%

Structure (SMILES): O=C([C@@H]1C[C@H](N2CCC(c3nnnn3-c3ccccc3)CC2)CN1)N1CCSC1
- IC50 (Dipeptidyl peptidase 4): 2.9 nM

Structure (SMILES): Cc1cc(N2CCN([C@@H]3CN[C@H](C(=O)N4CCSC4)C3)CC2)n(-c2ccccc2)n1
- Activity (Rattus norvegicus [3]): Active
- inhibition (Rattus norvegicus [4]): Dose-dependent effect
- Activity (Rattus norvegicus [5]): Active
- Activity (Rattus norvegicus [6]): Active
- inhibition (Rattus norvegicus [7]): Active

Structure (SMILES): Cc1cc(N2CCN([C@@H]3CN[C@H](C(=O)N4CCSC4)C3)CC2)n(-c2ccc(F)cc2)n1
- IC50 (Dipeptidyl peptidase 4): 2.3 nM

Structure (SMILES): Cc1cc(N2CCN([C@@H]3CN[C@H](C(=O)N4CCSC4)C3)CC2)n(-c2ccc(C#N)cc2)n1
- IC50 (Dipeptidyl peptidase 4): 13 nM

Continued, in another order:

- IC50 (Dipeptidyl peptidase 4): 0.69 nM
Structure (SMILES): O=C([C@@H]1C[C@H](N2CCN(c3ccnn3-c3ccccc3)CC2)CN1)N1CCSC1
- inhibition in vivo at 3 µmol/kg (Rattus norvegicus [1]): 50.8%
- inhibition in vivo at 3 µmol/kg (Rattus norvegicus [2]): 90.6%

- IC50 (Dipeptidyl peptidase 4): 0.19 nM
Structure (SMILES): O=C([C@@H]1C[C@H](N2CCN(c3nccn3-c3ccccc3)CC2)CN1)N1CCSC1
- inhibition in vivo at 3 µmol/kg (Rattus norvegicus [1]): 58%
- inhibition in vivo at 3 µmol/kg (Rattus norvegicus [2]): 59.3%

- IC50 (Dipeptidyl peptidase 4): 5.4 nM
Structure (SMILES): O=C([C@@H]1C[C@H](N2CCN(c3nc(-c4ccccc4)cs3)CC2)CN1)N1CCSC1

- IC50 (Dipeptidyl peptidase 4): 0.49 nM
Structure (SMILES): Cc1cc(N2CCN([C@@H]3CN[C@H](C(=O)N4CCSC4)C3)CC2)n(-c2cccc(F)c2)n1
- inhibition in vivo at 3 µmol/kg (Rattus norvegicus [1]): 75.1%
- inhibition in vivo at 3 µmol/kg (Rattus norvegicus [2]): 96.1%

- IC50 (Dipeptidyl peptidase 4): 0.53 nM
Structure (SMILES): Cc1cc(N2CCN([C@@H]3CN[C@H](C(=O)N4CCSC4)C3)CC2)n(-c2ccccc2F)n1
- inhibition in vivo at 3 µmol/kg (Rattus norvegicus [1]): 34.7%
- inhibition in vivo at 3 µmol/kg (Rattus norvegicus [2]): 75.9%

- IC50 (Dipeptidyl peptidase 4): 0.18 nM
Structure (SMILES): O=C([C@@H]1C[C@H](N2CCN(c3nnnn3-c3ccccc3)CC2)CN1)N1CCSC1
- inhibition in vivo at 3 µmol/kg (Rattus norvegicus [1]): 70.7%
- inhibition in vivo at 3 µmol/kg (Rattus norvegicus [2]): 85.1%

- AUC(0-inf) [8]: 202 ng·h/mL
- bioavailability [9]: 85.9%
- bioavailability [10]: 44.1%
- Tmax [11]: 0.75 h
- Cmax [12]: 20.6 ng/mL
- bioavailability [13]: 83.2%
- half-life [14]: 15.2 h
- AUC(0-inf) [15]: 613 ng·h/mL
- AUC(0-inf) [16]: 91.8 ng·h/mL
- bioavailability [17]: 62.9%
- half-life [18]: 8.97 h
- AUC(0-inf) [19]: 1570 ng·h/mL
- Tmax [20]: 0.88 h
- half-life [21]: 15.8 h
- Tmax [22]: 1.38 h
- half-life [23]: 8.43 h
- Cmax [24]: 5.48 ng/mL
- half-life [25]: 18.9 h
- Tmax [26]: 0.75 h
- AUC(0-inf) [27]: 673 ng·h/mL
- Cmax [28]: 28.3 ng/mL
- Cmax [29]: 274 ng/mL
- Tmax [30]: 0.5 h
- bioavailability [31]: 63%
- half-life [32]: 16.1 h
- Tmax [33]: 0.88 h
- bioavailability [34]: 57.6%
- Cmax [35]: 85.1 ng/mL
- Cmax [36]: 152 ng/mL
- AUC(0-inf) [37]: 295 ng·h/mL
Structure (SMILES): Br.Cc1cc(N2CCN([C@@H]3CN[C@H](C(=O)N4CCSC4)C3)CC2)n(-c2ccccc2)n1
